Several values for one entry are separate records, joined by “and”; a condition that tells them apart may be missing. Equal entries are not always repeated. Inconclusive results and toxic doses are left out.

This test deals with CD2F1 mice, L1210 leukemia ip, survival T/C. Put plainly: NCI In Vivo Anticancer Drug Screen. Data for tumor model L1210 Leukemia (intraperitoneal) in CD2F1 (CDF1) mice. As to conditions: endpoint: mean survival time, higher = longer survival. The method, boiled down: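 Mice carrying a transplanted tumor received test compound or vehicle alone. The value is the measurement in the treated group divided by that in the vehicle-treated control group.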

Where [1] appears, read: dose: 100.0 mg/kg/injection, schedule: Q01DX009 (ip), vehicle: saline with Tween-80.
Setting [2] is: dose: 200.0 mg/kg/injection, schedule: Q01DX009 (ip), vehicle: saline with Tween-80.
Where [3] appears, read: dose: 400.0 mg/kg/injection, schedule: Q01DX009 (ip), vehicle: saline with Tween-80.
[4] abbreviates: dose: 100.0 mg/kg/injection, schedule: Q04DX003 (ip), vehicle: saline with Tween-80.
The mark [5] stands for this setting: dose: 200.0 mg/kg/injection, schedule: Q04DX003 (ip), vehicle: saline with Tween-80.
[6] abbreviates: dose: 400.0 mg/kg/injection, schedule: Q04DX003 (ip), vehicle: saline with Tween-80.

As to `COC1OC(COC(c2ccccc2)(c2ccccc2)c2ccccc2)C(OC)C(OC)C1NC(C)=O` (configuration not stated), the T/C by setting is: (dose: 100.0 mg/kg/injection, schedule: Q01DX001 (ip), vehicle: Klucel (hydroxypropylcellulose) (HPC)) 91 % of control; (dose: 200.0 mg/kg/injection, schedule: Q01DX001 (ip), vehicle: Klucel (hydroxypropylcellulose) (HPC)) 96 % of control; (dose: 400.0 mg/kg/injection, schedule: Q01DX001 (ip), vehicle: Klucel (hydroxypropylcellulose) (HPC)) 96 % of control.
Take `CC(C)C(C#[N+][O-])C(C)C`: the T/C is 108 % of control (dose: 75.0 mg/kg/injection, schedule: Q01DX001 (ip), vehicle: other); 105 % of control (dose: 150.0 mg/kg/injection, schedule: Q01DX001 (ip), vehicle: other); 96 % of control (dose: 300.0 mg/kg/injection, schedule: Q01DX001 (ip), vehicle: other).
Consider `COc1ccc(Sc2cccc3c2C(=O)c2c(Sc4ccc(OC)cc4)cccc2C3=O)cc1`, for which the T/C was 99 % of control under setting [1], 94 % of control under setting [2] and 89 % of control under setting [3].
As for `O=C1OCC/C1=C1\CCCO1`, the T/C reads like this: under setting [4], 106 % of control; under setting [5], 101 % of control; under setting [6], 95 % of control.
`CC(C)OC(=O)Nc1cc(C(F)(F)F)cc(C(F)(F)F)c1`: the T/C is, setting by setting: under setting [1], 113 % of control; under setting [2], 94 % of control; under setting [3], 92 % of control.
For the molecule `CCCCCCCCCCCCCCCCNS(=O)(=O)c1ccc2sc(SC)nc2c1`, the T/C is, setting by setting: (dose: 12.5 mg/kg/injection, schedule: Q04DX002 (ip), vehicle: saline with Tween-80) 93 % of control; (dose: 25.0 mg/kg/injection, schedule: Q04DX002 (ip), vehicle: saline with Tween-80) 93 % of control.
`CCOC(=O)C(CC(C)C)NC(=O)C(Cc1ccc(N(CCCl)CCCl)cc1)NC(C)=O` (configuration not stated): the T/C reads like this: (dose: 0.5 mg/kg/injection, schedule: Q01DX009 (ip), vehicle: saline) 95 % of control; (dose: 1.0 mg/kg/injection, schedule: Q01DX009 (ip), vehicle: saline) 92 % of control; (dose: 1.0 mg/kg/injection, schedule: Q04DX003 (ip), vehicle: saline with Tween-80) 100 % of control; (dose: 2.0 mg/kg/injection, schedule: Q01DX001 (ip), vehicle: saline with Tween-80) 102 % of control [middle of 4 runs]; (dose: 2.0 mg/kg/injection, schedule: Q01DX009 (ip), vehicle: Klucel (hydroxypropylcellulose) (HPC)) 92 % of control and 95 % of control; (dose: 2.0 mg/kg/injection, schedule: Q01DX009 (ip), vehicle: saline) 94 % of control. Moreover, the T/C is, setting by setting: (dose: 2.0 mg/kg/injection, schedule: Q04DX003 (ip), vehicle: saline with Tween-80) 96 % of control and 97 % of control and 105 % of control; (dose: 4.0 mg/kg/injection, schedule: Q01DX001 (ip), vehicle: saline with Tween-80) 102 % of control [middle of 4 runs]; (dose: 4.0 mg/kg/injection, schedule: Q01DX009 (ip), vehicle: Klucel (hydroxypropylcellulose) (HPC)) 94 % of control and 95 % of control; (dose: 4.0 mg/kg/injection, schedule: Q01DX009 (ip), vehicle: saline) 101 % of control; (dose: 4.0 mg/kg/injection, schedule: Q04DX003 (ip), vehicle: saline with Tween-80) 105 % of control [middle of 4 runs]; (dose: 8.0 mg/kg/injection, schedule: Q01DX001 (ip), vehicle: saline with Tween-80) 100 % of control and 98 % of control and 102 % of control. In addition, the T/C is, setting by setting: (dose: 8.0 mg/kg/injection, schedule: Q01DX009 (ip), vehicle: Klucel (hydroxypropylcellulose) (HPC)) 94 % of control and 105 % of control; (dose: 8.0 mg/kg/injection, schedule: Q01DX009 (ip), vehicle: saline) 110 % of control and 95 % of control and 103 % of control; (dose: 8.0 mg/kg/injection, schedule: Q04DX003 (ip), vehicle: saline with Tween-80) 105 % of control [middle of 5 runs]; (dose: 16.0 mg/kg/injection, schedule: Q01DX001 (ip), vehicle: saline with Tween-80) 102 % of control [middle of 4 runs]; (dose: 16.0 mg/kg/injection, schedule: Q01DX009 (ip), vehicle: Klucel (hydroxypropylcellulose) (HPC)) 97 % of control and 111 % of control; (dose: 16.0 mg/kg/injection, schedule: Q01DX009 (ip), vehicle: saline) 120 % of control and 100 % of control and 121 % of control. Further, the T/C is, setting by setting: (dose: 16.0 mg/kg/injection, schedule: Q04DX003 (ip), vehicle: saline) 110 % of control; (dose: 32.0 mg/kg/injection, schedule: Q01DX001 (ip), vehicle: saline with Tween-80) 104 % of control [middle of 4 runs]; (dose: 32.0 mg/kg/injection, schedule: Q01DX001 (ip), vehicle: saline) 105 % of control; (dose: 32.0 mg/kg/injection, schedule: Q01DX009 (ip), vehicle: Klucel (hydroxypropylcellulose) (HPC)) 114 % of control; (dose: 32.0 mg/kg/injection, schedule: Q01DX009 (ip), vehicle: saline) 101 % of control; (dose: 32.0 mg/kg/injection, schedule: Q04DX003 (ip), vehicle: saline) 118 % of control. Further, the T/C by setting is: (dose: 64.0 mg/kg/injection, schedule: Q01DX001 (ip), vehicle: saline with Tween-80) 114 % of control and 108 % of control and 98 % of control; (dose: 64.0 mg/kg/injection, schedule: Q01DX001 (ip), vehicle: saline) 211 % of control; (dose: 64.0 mg/kg/injection, schedule: Q01DX009 (ip), vehicle: Klucel (hydroxypropylcellulose) (HPC)) 119 % of control; (dose: 64.0 mg/kg/injection, schedule: Q01DX009 (ip), vehicle: saline) 90 % of control; (dose: 128.0 mg/kg/injection, schedule: Q01DX001 (ip), vehicle: saline with Tween-80) 118 % of control and 104 % of control and 106 % of control; (dose: 128.0 mg/kg/injection, schedule: Q01DX009 (ip), vehicle: saline) 95 % of control and 105 % of control. In addition, the T/C is, setting by setting: (dose: 128.0 mg/kg/injection, schedule: Q04DX003 (ip), vehicle: saline with Tween-80) 120 % of control and 92 % of control; (dose: 128.0 mg/kg/injection, schedule: Q04DX003 (ip), vehicle: saline) 170 % of control; (dose: 256.0 mg/kg/injection, schedule: Q01DX001 (ip), vehicle: saline) 152 % of control; (dose: 256.0 mg/kg/injection, schedule: Q01DX009 (ip), vehicle: saline) 103 % of control; (dose: 256.0 mg/kg/injection, schedule: Q04DX003 (ip), vehicle: saline with Tween-80) 94 % of control and 107 % of control; (dose: 256.0 mg/kg/injection, schedule: Q04DX003 (ip), vehicle: saline) 120 % of control. Besides, the T/C (dose: 512.0 mg/kg/injection, schedule: Q01DX009 (ip), vehicle: saline) is 117 % of control.
Regarding `CC(=O)Oc1ccc2c3c(cccc13)CC2`, the T/C is, setting by setting: under setting [4], 98 % of control; under setting [5], 98 % of control; under setting [6], 98 % of control.
Regarding `O=C(Nc1ccc2c3c(ccc(C(=O)Nc4ccccc4)c13)CC2)c1ccccc1`, the T/C by setting is: under setting [4], 100 % of control; under setting [5], 100 % of control; under setting [6], 92 % of control.
For `O=Nc1cc(S(=O)(=O)O)c2ccccc2c1O`, the T/C under setting [1] is 90 % of control; the T/C under setting [4] is 97 % of control; the T/C under setting [2] was 88 % of control and 109 % of control; the T/C under setting [3] was 95 % of control; the T/C under setting [6] is 97 % of control.
As for `COc1ccccc1NC(=O)Nc1cccc([N+](=O)[O-])c1OC`, the T/C is, setting by setting: (dose: 100.0 mg/kg/injection, schedule: Q04DX002 (ip), vehicle: saline with Tween-80) 97 % of control; (dose: 200.0 mg/kg/injection, schedule: Q04DX002 (ip), vehicle: saline with Tween-80) 87 % of control; (dose: 400.0 mg/kg/injection, schedule: Q04DX002 (ip), vehicle: saline with Tween-80) 94 % of control.
Turning to `CN(C)c1ccc(Cc2ccc(N(C)C)nc2)cn1`, the T/C is 104 % of control (dose: 100.0 mg/kg/injection, schedule: Q01DX009 (ip), vehicle: Klucel (hydroxypropylcellulose) (HPC)); 98 % of control (dose: 200.0 mg/kg/injection, schedule: Q01DX009 (ip), vehicle: Klucel (hydroxypropylcellulose) (HPC)); 92 % of control (dose: 400.0 mg/kg/injection, schedule: Q01DX009 (ip), vehicle: Klucel (hydroxypropylcellulose) (HPC)).
On to `CC(C)(C)OC(=O)NCCCC(N)C(=O)O` (configuration not stated), for which the T/C was 92 % of control under setting [4], 94 % of control under setting [5] and 94 % of control under setting [6].
Consider `CCOC(=O)C(=O)Nc1ccc(Cl)cc1`, for which the T/C is, setting by setting: (dose: 100.0 mg/kg/injection, schedule: Q01DX001 (ip), vehicle: saline with Tween-80) 94 % of control; (dose: 200.0 mg/kg/injection, schedule: Q01DX001 (ip), vehicle: saline with Tween-80) 97 % of control; (dose: 400.0 mg/kg/injection, schedule: Q01DX001 (ip), vehicle: saline with Tween-80) 95 % of control.

For the origin of these results see PubChem BioAssay AID256 (DTP/NCI, 2004).
